From the supplement of paper PMC10627819

Assays:
[1] = tested on: S. aureus Newman; experiment: fitness (endpoint OD595 vs no drug) (fraction); higher = more growth
Outline: (§1)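 Fitness compares growth at the stationary-phase transition with the robust mean of no-drug control wells, as a ratio of optical densities. The ratio is capped at 1. Wells of 384-well plates held 30 µl, or 55 µl for S. pneumoniae, inoculated at OD595 0.01. Readings at OD595 every 30 min for 14 h at 37 °C were corrected against the first reading.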

[2] = tested on: S. aureus DSM 20231; experiment: Bliss interaction score (quartile over a dose matrix) (fitness difference); higher = more antagonism (negative = synergy)
Outline: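 The Bliss score takes observed fitness and subtracts the expected fitness, calculated as a product of single-drug fitness values. Those single-drug values were inferred from the combination data. Fitness is OD595 at entry into stationary phase divided by the plate's robust no-drug mean, capped at 1, and the score is summarised by quartiles across technical, biological and donor/recipient replicates.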

[3] = tested on: S. pneumoniae D39V; experiment: fitness (endpoint OD595 vs no drug) (fraction); higher = more growth
Outline: as §1

[4] = tested on: S. aureus DSM 20231; experiment: as above
Outline: as §1
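Throughout, for Bliss interaction score (quartile over a dose matrix): first quartile when negative (synergy) and third quartile when positive (antagonism).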
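Throughout, for fitness (endpoint OD595 vs no drug): OD595 on entry to stationary phase over no-drug wells; at most 1.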

CC1(C)S[C@@H]2[C@H](NC(=O)[C@H](N)c3ccc(O)cc3)C(=O)N2[C@H]1C(=O)O [Amoxicillin] + CC1(C)S[C@@H]2[C@H](NC(=O)Cc3ccccc3)C(=O)N2[C@H]1C(=O)O [Penicillin G]
fitness ([1]; first compound 0.0625 µg/mL, partner 0.0195 µg/mL): 0.845 | fitness ([1]; first compound 0.0625 µg/mL, partner 0.039 µg/mL): 0.878 | fitness ([1]; first compound 0.0625 µg/mL, partner 0.078 µg/mL): 0.796 | fitness ([1]; first compound 0.125 µg/mL, partner 0.0195 µg/mL): 0.855 | fitness ([1]; first compound 0.125 µg/mL, partner 0.039 µg/mL): 0.833 | fitness ([1]; first compound 0.125 µg/mL, partner 0.078 µg/mL): 0.801 | fitness ([1]; first compound 0.25 µg/mL, partner 0.039 µg/mL): 0.797 | fitness ([1]; first compound 0.25 µg/mL, partner 0.078 µg/mL): 0.807

CC1(C)S[C@@H]2[C@H](NC(=O)[C@H](N)c3ccc(O)cc3)C(=O)N2[C@H]1C(=O)O [Amoxicillin] + CC(=O)Oc1cccc2c1C(=O)c1c(OC(C)=O)cc(C(=O)O)cc1C2=O [Diacerein]
Bliss interaction score [2]: -0.192

CC1(C)S[C@@H]2[C@H](NC(=O)[C@H](N)c3ccc(O)cc3)C(=O)N2[C@H]1C(=O)O [Amoxicillin] + CC(=O)Oc1ccccc1C(=O)O [Acetylsalicylic acid]
fitness ([3]; first compound 0.0008 µg/mL, partner 250 µg/mL): 0.958 | fitness ([3]; first compound 0.0008 µg/mL, partner 500 µg/mL): 0.939 | fitness ([3]; first compound 0.0008 µg/mL, partner 1000 µg/mL): 0.774 | fitness ([3]; first compound 0.0015 µg/mL, partner 250 µg/mL): 0.975 | fitness ([3]; first compound 0.0015 µg/mL, partner 500 µg/mL): 0.923 | fitness ([3]; first compound 0.0015 µg/mL, partner 1000 µg/mL): 0.896 | fitness ([3]; first compound 0.003 µg/mL, partner 250 µg/mL): 0.919 | fitness ([3]; first compound 0.003 µg/mL, partner 500 µg/mL): 0.905 | fitness ([3]; first compound 0.003 µg/mL, partner 1000 µg/mL): 0.865 | fitness ([3]; first compound 0.006 µg/mL, partner 250 µg/mL, one replicate): 0.465 | fitness ([3]; first compound 0.006 µg/mL, partner 500 µg/mL, one replicate): 0.507 | fitness ([3]; first compound 0.006 µg/mL, partner 1000 µg/mL, one replicate): 0.483 | fitness ([4]; first compound 0.0625 µg/mL, partner 250 µg/mL): 0.511 | fitness ([4]; first compound 0.0625 µg/mL, partner 500 µg/mL): 0.449 | fitness ([4]; first compound 0.0625 µg/mL, partner 1000 µg/mL): 0.144 | fitness ([4]; first compound 0.125 µg/mL, partner 250 µg/mL): 0.448 | fitness ([4]; first compound 0.125 µg/mL, partner 500 µg/mL): 0.395 | fitness ([4]; first compound 0.125 µg/mL, partner 1000 µg/mL): 0.284 | fitness ([4]; first compound 0.25 µg/mL, partner 250 µg/mL): 0.0498 | fitness ([4]; first compound 0.25 µg/mL, partner 500 µg/mL): 0.05 | fitness ([4]; first compound 0.25 µg/mL, partner 1000 µg/mL): 0.0643 | fitness ([4]; first compound 0.5 µg/mL, partner 250 µg/mL): 0.0014 | fitness ([4]; first compound 0.5 µg/mL, partner 500 µg/mL): 0.0115 | fitness ([4]; first compound 0.5 µg/mL, partner 1000 µg/mL): 0.0095

CC1(C)S[C@@H]2[C@H](NC(=O)[C@H](N)c3ccc(O)cc3)C(=O)N2[C@H]1C(=O)O [Amoxicillin] + CC/C(=C(\c1ccccc1)c1ccc(OCCN(C)C)cc1)c1ccccc1 [Tamoxifene]
Bliss interaction score [2]: -0.148

CC1(C)S[C@@H]2[C@H](NC(=O)[C@H](N)c3ccc(O)cc3)C(=O)N2[C@H]1C(=O)O [Amoxicillin] + CCN(CC)CCOc1ccc(C(=C(Cl)c2ccccc2)c2ccccc2)cc1 [Clomiphene]
Bliss interaction score [2]: -0.255

CC1(C)S[C@@H]2[C@H](NC(=O)[C@H](N)c3ccc(O)cc3)C(=O)N2[C@H]1C(=O)O [Amoxicillin] + CN(C)[C@@H]1C(O)=C(C(N)=O)C(=O)[C@@]2(O)C(O)=C3C(=O)c4c(O)ccc(Cl)c4[C@@](C)(O)[C@H]3C[C@@H]12 [Chlortetracycline]
fitness ([3]; first compound 0.0008 µg/mL, partner 0.012 µg/mL, one replicate): 0.904 | fitness ([3]; first compound 0.0008 µg/mL, partner 0.024 µg/mL, one replicate): 0.844 | fitness ([3]; first compound 0.0008 µg/mL, partner 0.048 µg/mL, one replicate): 0.853 | fitness ([3]; first compound 0.0008 µg/mL, partner 0.375 µg/mL): 0.0877 | fitness ([3]; first compound 0.0008 µg/mL, partner 0.75 µg/mL): 0.0924 | fitness ([3]; first compound 0.0008 µg/mL, partner 1.5 µg/mL): 0.0983 | fitness ([3]; first compound 0.0015 µg/mL, partner 0.012 µg/mL): 0.845 | fitness ([3]; first compound 0.0015 µg/mL, partner 0.024 µg/mL): 0.854 | fitness ([3]; first compound 0.0015 µg/mL, partner 0.048 µg/mL): 0.887 | fitness ([3]; first compound 0.0015 µg/mL, partner 0.375 µg/mL): 0.119 | fitness ([3]; first compound 0.0015 µg/mL, partner 0.75 µg/mL): 0.0947 | fitness ([3]; first compound 0.0015 µg/mL, partner 1.5 µg/mL): 0.123 | fitness ([3]; first compound 0.003 µg/mL, partner 0.012 µg/mL): 0.808 | fitness ([3]; first compound 0.003 µg/mL, partner 0.024 µg/mL): 0.804 | fitness ([3]; first compound 0.003 µg/mL, partner 0.048 µg/mL): 0.85 | fitness ([3]; first compound 0.003 µg/mL, partner 0.375 µg/mL): 0.0652 | fitness ([3]; first compound 0.003 µg/mL, partner 0.75 µg/mL): 0.045 | fitness ([3]; first compound 0.003 µg/mL, partner 1.5 µg/mL): 0.0882 | fitness ([3]; first compound 0.006 µg/mL, partner 0.012 µg/mL, one replicate): 0.482 | fitness ([3]; first compound 0.006 µg/mL, partner 0.024 µg/mL, one replicate): 0.45 | fitness ([3]; first compound 0.006 µg/mL, partner 0.048 µg/mL, one replicate): 0.378 | fitness ([4]; first compound 0.0625 µg/mL, partner 0.012 µg/mL): 0.421 | fitness ([4]; first compound 0.0625 µg/mL, partner 0.024 µg/mL): 0.169 | fitness ([4]; first compound 0.0625 µg/mL, partner 0.048 µg/mL): 0.0806 | fitness ([4]; first compound 0.125 µg/mL, partner 0.006 µg/mL, one replicate): 0.402 | fitness ([4]; first compound 0.125 µg/mL, partner 0.012 µg/mL): 0.236 | fitness ([4]; first compound 0.125 µg/mL, partner 0.024 µg/mL): 0.127 | fitness ([4]; first compound 0.125 µg/mL, partner 0.048 µg/mL): 0.0782 | fitness ([4]; first compound 0.25 µg/mL, partner 0.006 µg/mL, one replicate): 0.052 | fitness ([4]; first compound 0.25 µg/mL, partner 0.012 µg/mL): 0.0422 | fitness ([4]; first compound 0.25 µg/mL, partner 0.024 µg/mL): 0.0199 | fitness ([4]; first compound 0.25 µg/mL, partner 0.048 µg/mL): 0.0289 | fitness ([4]; first compound 0.5 µg/mL, partner 0.006 µg/mL, one replicate): 0 | fitness ([4]; first compound 0.5 µg/mL, partner 0.012 µg/mL): 0.0037 | fitness ([4]; first compound 0.5 µg/mL, partner 0.024 µg/mL): 0.0085 | fitness ([4]; first compound 0.5 µg/mL, partner 0.048 µg/mL): 0.0227
